Experimental data reported in the Kinase Knowledgebase extract (Sharma et al. 2016).

The compounds below were run against ROCK2 (human) (UniProt O75116) (assay: Inhibition of ROCK2 Kinase Activity).
ROCK2 (human), sequence (O75116 whole entry, looked up): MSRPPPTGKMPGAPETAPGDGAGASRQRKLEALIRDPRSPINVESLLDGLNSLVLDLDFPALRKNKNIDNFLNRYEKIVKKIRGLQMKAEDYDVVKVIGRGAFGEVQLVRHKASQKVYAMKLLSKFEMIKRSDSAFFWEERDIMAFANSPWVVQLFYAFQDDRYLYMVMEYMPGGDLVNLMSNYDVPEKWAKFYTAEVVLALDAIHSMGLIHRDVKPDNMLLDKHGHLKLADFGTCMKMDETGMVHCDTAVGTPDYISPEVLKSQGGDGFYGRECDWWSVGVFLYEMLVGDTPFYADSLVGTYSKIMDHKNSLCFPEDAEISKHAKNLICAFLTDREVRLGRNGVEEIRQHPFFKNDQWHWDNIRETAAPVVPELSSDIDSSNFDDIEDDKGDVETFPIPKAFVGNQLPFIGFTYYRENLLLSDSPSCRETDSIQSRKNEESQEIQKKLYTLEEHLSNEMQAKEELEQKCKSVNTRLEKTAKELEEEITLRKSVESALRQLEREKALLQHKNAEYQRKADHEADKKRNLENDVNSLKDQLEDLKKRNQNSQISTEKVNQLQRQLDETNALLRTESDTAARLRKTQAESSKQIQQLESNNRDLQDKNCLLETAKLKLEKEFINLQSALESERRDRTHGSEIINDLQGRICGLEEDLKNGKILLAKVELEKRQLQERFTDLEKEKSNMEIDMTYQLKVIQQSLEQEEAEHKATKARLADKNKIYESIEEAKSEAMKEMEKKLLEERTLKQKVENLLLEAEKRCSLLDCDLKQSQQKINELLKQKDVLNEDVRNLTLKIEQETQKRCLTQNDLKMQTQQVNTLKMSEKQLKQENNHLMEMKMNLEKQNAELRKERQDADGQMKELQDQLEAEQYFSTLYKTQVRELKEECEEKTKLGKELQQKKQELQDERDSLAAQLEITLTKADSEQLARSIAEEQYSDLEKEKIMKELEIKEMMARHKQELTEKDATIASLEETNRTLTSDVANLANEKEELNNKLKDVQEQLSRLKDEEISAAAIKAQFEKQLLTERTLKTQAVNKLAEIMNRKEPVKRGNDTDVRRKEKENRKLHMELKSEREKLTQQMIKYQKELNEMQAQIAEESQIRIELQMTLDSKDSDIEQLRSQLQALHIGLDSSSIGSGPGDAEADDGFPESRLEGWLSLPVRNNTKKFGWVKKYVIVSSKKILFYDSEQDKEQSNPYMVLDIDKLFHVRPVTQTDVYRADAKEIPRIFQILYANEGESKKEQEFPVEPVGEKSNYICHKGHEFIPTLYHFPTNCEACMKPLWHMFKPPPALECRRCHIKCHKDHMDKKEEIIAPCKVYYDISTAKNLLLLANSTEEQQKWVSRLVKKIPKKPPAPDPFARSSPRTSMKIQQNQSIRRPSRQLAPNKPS

| Structure (SMILES) | IC50 [µM] |
| --- | --- |
| O=C(NCc1nc(-c2c[nH]c3ncccc23)n[nH]1)c1ccccc1Oc1ccccc1 | > 5 |
| CC(C)(C)C(=O)Oc1ccc(C(=O)NCc2nc(-c3ccncc3)n[nH]2)c(O)c1 | > 5 |
| O=C(NCc1nc(-c2ccncc2)n[nH]1)c1cc(Cl)c(O)c(Cl)c1 | > 5 |
| O=C(NCc1nc(-c2c[nH]c3ncccc23)n[nH]1)c1cc2ccccc2s1 | > 5 |
| O=C(NCc1nc(-c2c[nH]c3ncccc23)n[nH]1)c1ccccc1Cl | > 5 |
| O=C(NCc1nc(-c2ccncc2)n[nH]1)c1ccc(Br)cc1 | > 5 |
| CS(=O)(=O)Nc1cccc(C(=O)NCc2nc(-c3ccncc3)n[nH]2)c1 | > 5 |
| O=C(NCc1nc(-c2ccncc2)n[nH]1)c1ccc2c(c1)OCO2 | > 5 |
| O=C(NCc1nc(-c2c[nH]c3ncccc23)n[nH]1)c1ccc(Cl)nc1 | > 5 |
| O=C(NCc1nc(-c2c[nH]c3ncccc23)n[nH]1)c1cccc(Br)n1 | > 5 |
| O=C(NCc1nc(-c2ccncc2)n[nH]1)c1cccc(Cl)c1Cl | > 5 |
| O=C(NCc1nc(-c2ccncc2)n[nH]1)c1cc(F)c(F)cc1Cl | > 5 |
| O=C(NCc1nc(-c2ccncc2)n[nH]1)c1cc([N+](=O)[O-])ccc1O | > 5 |
| O=C(NCc1nc(-c2c[nH]c3ncccc23)n[nH]1)c1cc(F)c(F)cc1Cl | > 5 |
| O=C(NCc1nc(-c2c[nH]c3ncccc23)n[nH]1)c1cccc(Cl)c1[N+](=O)[O-] | > 5 |
| COc1ccc(Cl)cc1C(=O)NCc1nc(-c2ccncc2)n[nH]1 | > 5 |
| O=C(NCc1nc(-c2ccncc2)n[nH]1)c1ccccc1Cc1ccccc1 | > 5 |
| Cc1cc(C(=O)NCc2nc(-c3ccncc3)n[nH]2)cc(Cl)n1 | > 5 |
| O=C(NCc1nc(-c2c[nH]c3ncccc23)n[nH]1)c1ccccc1C(F)(F)F | > 5 |
| Cc1cccc(C(=O)NCc2nc(-c3ccncc3)c[nH]2)c1O | ≤ 5 |
| CC(C)(C)OC(=O)NC(Cc1ccccc1)C(=O)NCc1nc(-c2ccncc2)n[nH]1 (stereo not drawn) | > 5 |
| COc1ccc(Cl)cc1C(=O)NCc1nc(-c2c[nH]c3ncccc23)n[nH]1 | > 5 |

| Structure (SMILES) | IC50 [µM] |
| --- | --- |
| CC(C)(C)OC(=O)N1CC(O)CC1C(=O)NCc1nc(-c2c[nH]c3ncccc23)n[nH]1 (stereo not drawn) | > 5 |
| CC(=O)NCc1nc(-c2c[nH]c3ncccc23)n[nH]1 | > 5 |
| O=C(NCc1nc(-c2ccncc2)n[nH]1)c1ccc(Cl)cc1Cl | > 5 |
| O=C(NCc1nc(-c2ccncc2)n[nH]1)c1ccc(O)cc1 | ≤ 5 |
| O=C(NCc1nc(-c2ccncc2)n[nH]1)c1ccc(-c2ccc(O)cc2)cc1 | > 5 |
| O=C(NCc1nc(-c2ccncc2)n[nH]1)c1cc(Cl)ccc1[N+](=O)[O-] | > 5 |
| CCCCCCCC(=O)NCc1nc(-c2ccncc2)n[nH]1 | > 5 |
| O=C(NCc1nc(-c2c[nH]c3ncccc23)n[nH]1)c1ccnc(Cl)c1 | > 5 |
| Cc1cc(C)c(C(=O)NCc2nc(-c3ccncc3)n[nH]2)c(C)c1 | > 5 |
| O=C(Cc1ccc(Br)cc1)NCc1nc(-c2ccncc2)n[nH]1 | > 5 |
| O=C(C=Cc1ccccc1F)NCc1nc(-c2c[nH]c3ncccc23)n[nH]1 | > 5 |
| O=C(NCc1nc(-c2c[nH]c3ncccc23)n[nH]1)c1cc([N+](=O)[O-])ccc1Cl | > 5 |
| CC(C)(C)C(=O)NCc1nc(-c2c[nH]c3ncccc23)n[nH]1 | > 5 |
| O=C(NCc1nc(-c2ccncc2)n[nH]1)c1ccc(Cl)c([N+](=O)[O-])c1 | > 5 |
| Cc1cccc([N+](=O)[O-])c1C(=O)NCc1nc(-c2ccncc2)n[nH]1 | > 5 |
| Cc1cc(C(=O)NCc2nc(-c3ccncc3)n[nH]2)ccc1Br | > 5 |
| Cc1cc(C(=O)NCc2nc(-c3ccncc3)n[nH]2)ccc1O | ≤ 5 |
| O=C(NCc1nc(-c2ccncc2)n[nH]1)C1CCCCC1 | > 5 |
| CC(C(=O)NCc1nc(-c2c[nH]c3ncccc23)n[nH]1)c1ccc(O)cc1 (stereo not drawn) | > 5 |
| O=C(NCc1nc(-c2ccncc2)n[nH]1)c1cc([N+](=O)[O-])ccc1F | > 5 |
| Cc1ccc(C(=O)NCc2nc(-c3ccncc3)n[nH]2)s1 | ≤ 5 |
| Cc1ccc(F)cc1C(=O)NCc1nc(-c2c[nH]c3ncccc23)n[nH]1 | > 5 |

| Structure (SMILES) | IC50 [µM] |
| --- | --- |
| O=C(NCc1nc(-c2c[nH]c3ncccc23)n[nH]1)c1cccnc1Cl | > 5 |
| CC(C)c1ccc(C(=O)NCc2nc(-c3c[nH]c4ncccc34)n[nH]2)cc1 | > 5 |
| CCCOc1ccc(C(=O)NCc2nc(-c3ccncc3)n[nH]2)cc1 | > 5 |
| O=C(NCc1nc(-c2c[nH]c3ncccc23)n[nH]1)C(O)CCl (stereo not drawn) | > 5 |
| COc1cccc(O)c1C(=O)NCc1nc(-c2ccncc2)n[nH]1 | ≤ 5 |
| O=C(C=Cc1ccccc1C(F)(F)F)NCc1nc(-c2c[nH]c3ncccc23)n[nH]1 | > 5 |
| CCCCCc1ccc(C(=O)NCc2nc(-c3ccncc3)n[nH]2)cc1 | > 5 |
| COc1cccc(C(=O)NCc2nc(-c3c[nH]c4ncccc34)n[nH]2)c1OC | > 5 |
| CCC(C)C(NC(=O)OC(C)(C)C)C(=O)NCc1nc(-c2c[nH]c3ncccc23)n[nH]1 (stereo not drawn) | > 5 |
| O=C(NCc1nc(-c2ccncc2)n[nH]1)c1cccc2c1OCC2 | > 5 |
| CC(=O)c1ccc(C(=O)NCc2nc(-c3c[nH]c4ncccc34)n[nH]2)cc1 | ≤ 5 |
| CCOc1ccc2ccccc2c1C(=O)NCc1nc(-c2ccncc2)n[nH]1 | > 5 |
| CCCCOc1ccc(C(=O)NCc2nc(-c3ccncc3)n[nH]2)cc1 | > 5 |
| O=C(Cc1ccc2c(c1)OCO2)NCc1nc(-c2c[nH]c3ncccc23)n[nH]1 | > 5 |
| O=C(NCc1nc(-c2ccncc2)n[nH]1)c1cccc2ccccc12 | > 5 |
| O=C(NCc1nc(-c2c[nH]c3ncccc23)n[nH]1)c1csc2ccccc12 | > 5 |
| Cc1ccc([N+](=O)[O-])c(C(=O)NCc2nc(-c3c[nH]c4ncccc34)n[nH]2)c1 | > 5 |
| O=C(NCc1nc(-c2c[nH]c3ncccc23)n[nH]1)c1cccnc1 | > 5 |
| Cc1ccc(SCC(=O)NCc2nc(-c3c[nH]c4ncccc34)n[nH]2)cc1 | > 5 |
| CC(O)C(=O)NCc1nc(-c2c[nH]c3ncccc23)n[nH]1 (stereo not drawn) | > 5 |
| O=C(CCc1ccccc1Br)NCc1nc(-c2ccncc2)n[nH]1 | > 5 |
| O=S(=O)(NCc1nc(-c2ccncc2)n[nH]1)c1ccc(O)cc1 | > 5 |

| Structure (SMILES) | IC50 [µM] |
| --- | --- |
| O=C(NCc1nc(-c2c[nH]c3ncccc23)n[nH]1)c1ccc(O)cc1O | ≤ 5 |
| COc1ccc(NC(=O)NCc2nc(-c3ccncc3)n[nH]2)c(OC)c1 | > 5 |
| O=C(NCc1nc(-c2ccncc2)n[nH]1)c1ccc([N+](=O)[O-])cc1Cl | > 5 |
| COc1ccccc1CC(=O)NCc1nc(-c2c[nH]c3ncccc23)n[nH]1 | > 5 |
| O=C(CCc1nc(-c2ccncc2)n[nH]1)c1ccc(O)cc1 | ≤ 5 |
| CCN(CC)c1ccc(C(=O)NCc2nc(-c3ccncc3)n[nH]2)cc1 | > 5 |
| Clc1ccc(SCc2n[nH]c(-c3ccncc3)n2)cc1 | ≤ 5 |
| CC(C)(C)OC(=O)N1CCCC1C(=O)NCc1nc(-c2c[nH]c3ncccc23)n[nH]1 (stereo not drawn) | > 5 |
| Cc1csc(C(=O)NCc2nc(-c3ccncc3)n[nH]2)c1 | ≤ 5 |
| O=C(NCc1nc(-c2ccncc2)n[nH]1)c1ncc[nH]1 | > 5 |
| O=C(NCc1nc(-c2ccncc2)n[nH]1)c1c(F)c(F)c(F)c(F)c1F | > 5 |
| COc1ccc(C(=O)NCc2nc(-c3c[nH]c4ncccc34)n[nH]2)cc1 | > 5 |
| O=C(NCc1nc(-c2c[nH]c3ncccc23)n[nH]1)C1CCc2ccccc21 (stereo not drawn) | > 5 |
| COc1cccc(C(=O)NCc2nc(-c3ccncc3)n[nH]2)c1OC | > 5 |
| O=C(NCc1nc(-c2ccncc2)n[nH]1)c1c(O)ccc2ccccc12 | > 5 |
| COc1cccc(C(=O)NCc2nc(-c3ccncc3)no2)c1 | > 5 |
| CC(C)(C)OC(=O)NC[C@H](NC(=O)c1ccc(O)cc1O)c1nc(-c2ccncc2)n[nH]1 | ≤ 5 |
| O=C(NCc1nc(-c2ccncc2)n[nH]1)c1ccncc1-c1ccccc1 | > 5 |
| Cc1cc(C)cc(C(=O)NCc2nc(-c3c[nH]c4ncccc34)n[nH]2)c1 | > 5 |
| CCC(=O)C(=O)NCc1nc(-c2c[nH]c3ncccc23)n[nH]1 | > 5 |
| CC(C)C(=O)Oc1ccc(C(=O)NCc2nc(-c3ccncc3)n[nH]2)c(O)c1 | ≤ 5 |
| COC1=CC(OC)(C(=O)NCc2nc(-c3ccncc3)n[nH]2)C=C1 (stereo not drawn) | > 5 |

| Structure (SMILES) | IC50 [µM] |
| --- | --- |
| O=C(NCc1nc(-c2ccncc2)n[nH]1)c1c(Cl)cc(Cl)cc1Cl | > 5 |
| O=C(Cc1ccc(O)c(F)c1)NCc1nc(-c2c[nH]c3ncccc23)n[nH]1 | > 5 |
| Cc1cccc(C(=O)NCc2nc(-c3ccncc3)n[nH]2)c1 | > 5 |
| O=C(NCc1nc(-c2c[nH]c3ncccc23)n[nH]1)c1ccc(C(F)(F)F)cc1[N+](=O)[O-] | > 5 |
| Cc1ccc(C)c(C(=O)NCc2nc(-c3ccncc3)n[nH]2)c1 | > 5 |
| O=C(NCc1nc(-c2ccncc2)n[nH]1)C(O)CCl (stereo not drawn) | > 5 |
| O=Cc1ccccc1C(=O)NCc1nc(-c2ccncc2)n[nH]1 | > 5 |
| CS(=O)(=O)Nc1ccc(C(=O)NCc2nc(-c3ccncc3)n[nH]2)cc1 | > 5 |
| CC(C)(C)C(=O)Oc1ccc(C(=O)NCc2nc(-c3ccncc3)n[nH]2)cc1 | > 5 |
| NC1CCN(C(=O)Cc2nc(-c3ccncc3)n[nH]2)C1 (stereo not drawn) | > 5 |
| Cc1ccc(C(=O)NCc2nc(-c3ccncc3)n[nH]2)cc1Br | > 5 |
| CC(C)(C)C(=O)Oc1ccc(C(=O)NCc2nc(-c3ccncc3)n[nH]2)c(OC(=O)C(C)(C)C)c1 | > 5 |
| CC(=O)Oc1ccc(C(=O)NCc2nc(-c3c[nH]c4ncccc34)n[nH]2)cc1 | ≤ 5 |
| O=C(NCc1nc(-c2c[nH]c3ncccc23)n[nH]1)c1ccc(Cl)c([N+](=O)[O-])c1 | > 5 |
| CC(C(=O)NCc1nc(-c2ccncc2)n[nH]1)c1ccc(-c2ccccc2)c(F)c1 (stereo not drawn) | > 5 |
| O=C(Cc1ccc(C(F)(F)F)cc1)NCc1nc(-c2c[nH]c3ncccc23)n[nH]1 | > 5 |
| N#Cc1ccc(C(=O)NCc2nc(-c3c[nH]c4ncccc34)n[nH]2)cc1 | > 5 |
| O=C(NCc1nc(-c2c[nH]c3ncccc23)n[nH]1)c1ccc(Cl)c(Br)c1 | > 5 |
| O=C(NCc1nc(-c2c[nH]c3ncccc23)n[nH]1)C1CCc2ccccc2C1 (stereo not drawn) | > 5 |
| O=C(NCc1nc(-c2ccncc2)n[nH]1)c1cccc(F)c1 | > 5 |
